Read-outs that look alike come from different tables or passages of the source.
Columns and labels:
Type in all cases: biochemical
PKM1 = PKM1 (Homo sapiens, UniProt P14618); experiment: luminescent pyruvate kinase-luciferase coupled assay, PKM1 isoform; details: same assay system as for PKM2
Protocol: (§1) Production of a luminescent signal based on the generation of ATP by pyruvate kinase was determined by using the ATP-dependent enzyme firefly luciferase. Three μL of substrate mix (at r.t.) in assay buffer (50 mM imidazole pH 7.2, 50 mM KCl, 7 mM MgCl2, 0.01% tween 20, 0.05% BSA) was dispensed into Kalypsys (San Diego, Calif., USA) white solid bottom 1,536 well microtiter plates using a bottle-valve solenoid-based dispenser (Kalypsys). The final concentrations of substrates in the assay were 0.1 mM ADP and 0.5 mM PEP. Twenty-three nL of compound in DMSO were delivered with a 1,536-pin array tool, and 1 μL of enzyme mix in assay buffer (final concentration, 0.1 nM pyruvate kinase, 50 mM imidazole pH 7.2, 0.05% BSA, 4° C.) was added. Microtiter plates were incubated at r.t. for 1 hour and 2 uL of luciferase detection mix (Kinase-Glo from Promega, Madison, Wis., USA) at 4° C. protected from light, was added and luminescence was read with a ViewLux (Perkin Elmer, Waltham, Mass., USA) using a 2 second exposure/plate (with 2× binning). The final concentration of DMSO was 0.5% and found not to affect the assay signal.
(§2) The same assay system was utilized to examine the activity of compound 4 and all related analogs versus PKL, PKM1 and PKR pyruvate kinase isoforms. No activity for any of the compounds were found against PKL, PKM1, or PKR.

PKL = PKL (Homo sapiens, UniProt P30613); experiment: luminescent pyruvate kinase-luciferase coupled assay, PKL isoform; details: same assay system as for PKM2
PKL, sequence (P30613 1-543 isoform P30613-2): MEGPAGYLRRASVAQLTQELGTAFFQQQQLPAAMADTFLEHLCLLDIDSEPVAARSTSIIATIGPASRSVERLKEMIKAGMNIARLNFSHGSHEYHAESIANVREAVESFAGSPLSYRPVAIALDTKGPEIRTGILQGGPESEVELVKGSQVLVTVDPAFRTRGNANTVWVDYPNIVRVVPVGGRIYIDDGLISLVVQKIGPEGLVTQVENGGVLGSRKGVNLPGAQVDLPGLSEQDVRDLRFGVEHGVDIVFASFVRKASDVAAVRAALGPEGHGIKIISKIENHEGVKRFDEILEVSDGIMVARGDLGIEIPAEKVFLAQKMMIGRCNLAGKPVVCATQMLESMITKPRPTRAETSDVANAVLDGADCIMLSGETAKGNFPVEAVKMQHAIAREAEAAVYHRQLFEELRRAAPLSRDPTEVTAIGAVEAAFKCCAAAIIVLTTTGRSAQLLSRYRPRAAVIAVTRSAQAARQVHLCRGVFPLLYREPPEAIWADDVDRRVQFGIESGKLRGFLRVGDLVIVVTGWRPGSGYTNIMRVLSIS
Protocol: as §1, §2

hPK, M2 = hPK, M2 (Homo sapiens, UniProt P14618); experiment: luminescent pyruvate kinase-luciferase coupled assay (qHTS); details: for AC50: 0.1 mM ADP, 0.5 mM PEP; for activation at 57 µM / hPK, M2 Max. Res.: % activation at 57 μM of compound; for activation at 57 µM: read-out: hPK, M2 Max. Res.; for Emax: maximum response (activation), read-out: Max. Res.
hPK, M2, sequence (P14618 whole entry): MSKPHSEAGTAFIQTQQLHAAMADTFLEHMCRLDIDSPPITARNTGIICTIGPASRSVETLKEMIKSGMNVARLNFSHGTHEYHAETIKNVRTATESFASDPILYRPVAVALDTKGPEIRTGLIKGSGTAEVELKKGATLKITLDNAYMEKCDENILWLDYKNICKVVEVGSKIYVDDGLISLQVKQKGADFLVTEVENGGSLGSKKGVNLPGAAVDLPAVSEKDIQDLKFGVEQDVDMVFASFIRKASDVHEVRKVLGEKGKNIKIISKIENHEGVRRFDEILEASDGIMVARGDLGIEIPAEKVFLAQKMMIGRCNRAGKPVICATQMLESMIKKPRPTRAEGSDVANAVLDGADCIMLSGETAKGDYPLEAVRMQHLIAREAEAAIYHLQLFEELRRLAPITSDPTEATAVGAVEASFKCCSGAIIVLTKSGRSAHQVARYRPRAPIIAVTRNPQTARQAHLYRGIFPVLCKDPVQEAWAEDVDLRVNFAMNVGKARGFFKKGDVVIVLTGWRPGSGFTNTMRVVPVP
Protocol: AC50 values were determined utilizing the luminescent pyruvate kinase-luciferase coupled assay (Inglese, J. et al, Quantitative high-throughput screening: a titration-based approach that efficiently identifies biological activities in large chemical libraries. Proc. Natl. Acad. Sci. U.S.A. 2006, 103, 11473-11478).
Luminescent Pyruvate Kinase-Luciferase Coupled Assay.
as §1
Data was normalized for AC50 values to control columns containing uninhibited enzyme (n), and AC100 inhibition (i) according the following equation: Activation (%)=[(c−n)/(n−i)]*100 where c=compound, n=DMSO neutral, i=no enzyme control. A % activity of 100% is approximately a 2-fold increase over basal assay signal (% Activation by FBP was variable but averaged 100%). Monitoring of activation was accomplished using enzyme at 3× the final concentration.
All compounds were screened using a qHTS approach, where compounds are assayed using at least seven concentrations to generate concentration-response curves for every compounds. Briefly, qHTS uses an inter-plate dilution method where the first plate contains the highest concentration of a set of compounds in DMSO, while subsequent plates contain the same compounds in the same well locations, but at successive lower concentrations. Using the protocol outlined above, the rate was calculated as a plate throughput of 18 plates/hr or approximately 7 samples/sec on the Kalypsys robotic system which means that a 7 point CRC was obtained every second on the robotic system.

PKR = PKR (Homo sapiens, UniProt P30613); experiment: luminescent pyruvate kinase-luciferase coupled assay, PKR isoform; details: same assay system as for PKM2
PKR, sequence (P30613 whole entry, canonical isoform): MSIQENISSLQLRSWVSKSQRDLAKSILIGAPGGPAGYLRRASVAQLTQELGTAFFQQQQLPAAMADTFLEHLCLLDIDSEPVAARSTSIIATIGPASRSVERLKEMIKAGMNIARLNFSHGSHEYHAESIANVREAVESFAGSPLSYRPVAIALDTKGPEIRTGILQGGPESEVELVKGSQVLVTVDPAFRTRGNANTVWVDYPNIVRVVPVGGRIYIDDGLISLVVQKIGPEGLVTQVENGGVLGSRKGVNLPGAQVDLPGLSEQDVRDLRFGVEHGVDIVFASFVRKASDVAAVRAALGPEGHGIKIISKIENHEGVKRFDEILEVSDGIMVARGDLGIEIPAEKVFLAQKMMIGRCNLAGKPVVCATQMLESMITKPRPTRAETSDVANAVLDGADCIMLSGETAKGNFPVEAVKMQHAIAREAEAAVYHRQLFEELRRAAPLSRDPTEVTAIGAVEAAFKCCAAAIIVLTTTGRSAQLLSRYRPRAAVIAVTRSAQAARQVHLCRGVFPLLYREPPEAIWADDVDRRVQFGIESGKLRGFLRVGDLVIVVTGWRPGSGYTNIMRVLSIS
Protocol: as §1, §2

[1] = Table 2, mean of three replicate experiments
[2] = Table 3, mean of three replicate experiments
[3] = Table 2, mean of three replicate experiments, read-out: hPK, M2 AC50

PKM1, sequence (P14618 1-531 isoform P14618-2): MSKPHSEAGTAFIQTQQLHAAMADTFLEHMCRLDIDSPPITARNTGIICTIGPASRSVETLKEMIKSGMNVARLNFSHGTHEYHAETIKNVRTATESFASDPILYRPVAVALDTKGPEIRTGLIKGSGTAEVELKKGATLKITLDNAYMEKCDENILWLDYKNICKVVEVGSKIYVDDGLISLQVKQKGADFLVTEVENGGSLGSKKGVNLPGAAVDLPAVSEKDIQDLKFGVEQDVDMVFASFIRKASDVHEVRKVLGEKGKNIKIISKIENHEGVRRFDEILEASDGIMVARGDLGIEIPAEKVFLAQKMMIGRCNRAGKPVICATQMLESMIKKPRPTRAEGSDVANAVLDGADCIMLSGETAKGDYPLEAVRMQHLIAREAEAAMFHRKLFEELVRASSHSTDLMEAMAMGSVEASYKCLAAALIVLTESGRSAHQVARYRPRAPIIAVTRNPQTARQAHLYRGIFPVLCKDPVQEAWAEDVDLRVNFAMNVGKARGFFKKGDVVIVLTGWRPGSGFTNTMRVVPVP

| SMILES | AC50 (hPK, M2; Table 4, read-out: AC50) | Emax (hPK, M2; Table 4) | other results |
| --- | --- | --- | --- |
| Cc1ccc(NS(=O)(=O)c2ccc3c(c2)CCC(=O)N3)cc1C [Compound 4, N-(3,4-dimethylphenyl)-2-oxo-1,2,3,4-tetrahydroquinoline-6-sulfonamide] |  |  | activity against PKM1 (PKM1): No activity; activity against PKL (PKL): No activity; AC50 (hPK, M2; Table 1, mean of three replicate experiments, read-out: hPK, M2 AC50): 650 nM; activation at 57 µM (hPK, M2; Table 1, mean of three replicate experiments): 104%; hPK, M2 Max. Res. (hPK, M2; [1]): 104%; hPK, M2 Max. Res. (hPK, M2; [2]): 104%; activity against PKR (PKR): No activity |
| O=C1CCc2cc(S(=O)(=O)Nc3ccc(F)cc3)ccc2N1 [Compound 23, N-(4-fluorophenyl)-2-oxo-1,2,3,4-tetrahydroquinoline-6-sulfonamide] |  |  | AC50 (hPK, M2; [3]): 10000 nM; activation at 57 µM (hPK, M2; [1]): 99% |
| CCN(CC)c1cc2c(cc1S(=O)(=O)Nc1ccc(C)c(C)c1)CCC(=O)N2 [Compound 66, 7-(diethylamino)-N-(3,4-dimethylphenyl)-2-oxo-1,2,3,4-tetrahydroquinoline-6-sulfonamide] | 7240 nM | 111% |  |
| COc1cccc(NS(=O)(=O)c2ccc3c(c2)CCC(=O)N3)c1 [Compound 15, N-(3-methoxyphenyl)-2-oxo-1,2,3,4-tetrahydroquinoline-6-sulfonamide] |  |  | AC50 (hPK, M2; [3]): 3200 nM; activation at 57 µM (hPK, M2; [1]): 91% |
| Cc1ccc(NS(=O)(=O)c2cc3c(cc2Cl)NC(=O)C3)cc1C [Compound 57, 6-chloro-N-(3,4-dimethylphenyl)-2-oxoindoline-5-sulfonamide] | 920 nM | 108% |  |
| Cc1ccc(NS(=O)(=O)c2cc3c(cc2N2CCCC2)NC(=O)CC3)cc1C [Compound 62, N-(3,4-dimethylphenyl)-2-oxo-7-(pyrrolidin-1-yl)-1,2,3,4-tetrahydroquinoline-6-sulfonamide] | 460 nM | 124% |  |
| Cc1ccc(NS(=O)(=O)c2cc3c(cc2N[C@@H](C)CO)NC(=O)CC3)cc1C [Compound 68, (S)—N-(3,4-dimethylphenyl)-7-(1-hydroxypropan-2-ylamino)-2-oxo-1,2,3,4-tetrahydroquinoline-6-sulfonamide] | 90 nM | 131% |  |
| Cc1ccc(NS(=O)(=O)c2cc3c(cc2N(C)C)NC(=O)CC3)cc1C [Compound 32, 7-(dimethylamino)-N-(3,4-dimethylphenyl)-2-oxo-1,2,3,4-tetrahydroquinoline-6-sulfonamide] |  |  | AC50 (hPK, M2; Table 3, mean of three replicate experiments, read-out: hPK, M2 AC50): 520 nM; activation at 57 µM (hPK, M2; [2]): 106% |
| C[C@@H](CO)Nc1cc2c(cc1S(=O)(=O)Nc1ccc(F)c(Cl)c1)CCC(=O)N2 [Compound 73, (S)—N-(3-chloro-4-fluorophenyl)-7-(1-hydroxypropan-2-ylamino)-2-oxo-1,2,3,4-tetrahydroquinoline-6-sulfonamide] | 140 nM | 95% |  |

Continued, in another order:

| AC50 (hPK, M2; Table 4, read-out: AC50) | Emax (hPK, M2; Table 4) | SMILES | other results |
| --- | --- | --- | --- |
| 370 nM | 121% | Cc1cc(NS(=O)(=O)c2ccc3c(c2)CCC(=O)N3)ccc1F [Compound 53, N-(4-fluoro-3-methylphenyl)-2-oxo-1,2,3,4-tetrahydroquinoline-6-sulfonamide] |  |
| 410 nM | 96.5% | Cc1cc(NS(=O)(=O)c2ccc3c(c2)CCC(=O)N3)ccc1Cl [Compound 58, N-(4-chloro-3-methylphenyl)-2-oxo-1,2,3,4-tetrahydroquinoline-6-sulfonamide] |  |

Reference: patent US9708267B2, “Activators of human pyruvate kinase” (The United States of America, as represented by the …, priority 2010, dated 2017)
